Measured values taken from patent US8709457B2, “Hydroxylated amide skin moisturizer” (L'Oreal, priority 2006, dated 2014).

Tested on: Stratum Corneum
Test: Dermometer, mechanical measurement of the plasticizing effect (elastic modulus of Stratum Corneum)
Conditions: for plasticizing effect on the stratum corneum (in words) / ranking of plasticizing effect among tested compounds: 3% aqueous solution, 30° C., 75% RH; for Relative variation in the elastic modulus of Stratum Corneum, 2H / Relative variation in the elastic modulus of Stratum Corneum, 20H: 30° C. and 75% relative humidity, products tested at 3% in water (controls in water), mean ± standard deviation, 10 samples; for Relative variation in the elastic modulus of Stratum Corneum, 2H: 2 h after application; for Relative variation in the elastic modulus of Stratum Corneum, 20H: 20 h after application
Procedure: A test was performed to evaluate the moisturizing potential of the compounds of the invention which are formulated in a 3% aqueous solution.
Dermometer, mechanical measurement of the plasticizing effect (described by J de Rigal, J-L. Leveque, International Journal of Cosmetic Science, 1982, 247-260).
The tests carried out were performed under the standard conditions on stratum corneum in a chamber at controlled temperature and humidity (T=30° C. and RH=75%). The elastic modulus measurements are performed on each control test specimen and then 2 hours and 20 hours after application of the treatment. The relative variation in the modulus makes it possible to assess the plasticizing effect of the active agent on the Stratum Corneum.
The mean and the standard deviation were calculated on 10 stratum corneum samples.

SMILES	plasticizing effect on the stratum corneum (in words)	Relative variation in the elastic modulus of Stratum Corneum, 2H	Relative variation in the elastic modulus of Stratum Corneum, 20H	ranking of plasticizing effect among tested compounds
NC(=O)[C@H](O)[C@H](O)CO [Compound 3, (2R,3R)-2,3,4-Trihydroxybutanamide]	significant plasticizing effect	−32 +/− 18%	−34 +/− 15%	
C[Si](C)(C)CNC(=O)[C@H](O)[C@H](O)CO [Compound 5, (2R,3R)-2,3,4-trihydroxy-N-[(trimethylsilyl)methyl]butanamide]	significant plasticizing effect	−34 +/− 15%	−31 +/− 18%	
O=C(NCCO)[C@H](O)[C@H](O)CO [Compound 9, (2R,3R)-2,3,4-trihydroxy-N-(2-hydroxyethyl)butanamide]	significant plasticizing effect	−26 +/− 14%	−27 +/− 16%	
O=C([C@H](O)[C@H](O)CO)N(CCO)CCO [Compound 14, (2R,3R)-2,3,4-trihydroxy-N,N-bis(2-hydroxyethyl)butanamide]	significant plasticizing effect	−23 +/− 18%	−49 +/− 14%	most effective
CCN(CCO)C(=O)[C@H](O)[C@H](O)CO [Compound 15, (2R,3R)—N-ethyl-2,3,4-trihydroxy-N-(2-hydroxyethyl)butanamide]	significant plasticizing effect	-28 +/− 10%	−48 +/− 12%	most effective
OCC(O)CO [Glycerol, reference compound]		−41 ± 12%	−51 ± 15%	
NC(N)=O [Urea, reference compound]		−72 ± 9%	−83 ± 7%	
